This is an account of results in PMC5823845 (Bioorganic & Medicinal Chemistry, 2018).

In data set [1] the test system is Salmonella Typhimurium (TA98, TA100, and TA1535). Description: Ames test. It is filed as cell-based. As to conditions: three bacterial strains; presence and absence of S9. The text has this: For the first two assays, photometry is used for detection.
Data set [2] has as its target T1, hERG channel (Homo sapiens, UniProt Q12809).
T1 construct: host or cells: HEK293 cells expressing HERG (per the cited method)
In words: hERG binding assay, displacement of [3H]-astemizole. As to conditions: up to 10 μM. Here is the method:
Interaction with the hERG channel was assessed by displacement of the radioligand [^3H]-astemizole as described by Chiu et al.^3

Data set [3] deals with HEPG2 cells. Description: High-content cell toxicity screen in HEPG2 cells. It counts as cell-based. Conditions: concentrations up to 50 μM. How it is done: Effect on the cell or mitochondrial viability markers in HepG2 cells were tested for compounds up to 50 μM. HepG2 cells were plated on 96-well tissue culture treated black walled clear bottomed polystyrene plates at 0:3 _ 104 cells in 100_L per well. After 24 hr the cells were dosed with the test compound at a range of concentrations (see Assay Summary for details). At the end of the incubation period, the cells were loaded with the relevant dye/antibody for each cell health marker. The plates were then scanned using an automated fluorescent cellular imager, ArrayScanr VTI (Thermo Scientific Cellomics).

Data set [4] can be described thus: Stability and intrinsic clearance in cryopreserved hepatocytes. As to conditions: human.
Description: (§1) Reactions were terminated by addition of 100 μL of acetonitrile containing carbamazepine as the analytical internal standard. Samples were centrifuged and the supernatant fractions analysed by LC-MS/MS. The instrument responses (peak heights) were referenced to the zero time-point samples (as 100%) in order to determine the percentage of compound remaining. Ln plots of the % remaining, for each compound, were used to determine the half-life for the hepatocyte incubations.
Assay in data set [5]: as above
As to conditions: cynomolgus monkey.
Description: as §1

In data set [6] the target is T2, mouse RAR alpha receptor (Mus musculus, UniProt P11416).
T2 sequence (P11416 183-417 limits assumed): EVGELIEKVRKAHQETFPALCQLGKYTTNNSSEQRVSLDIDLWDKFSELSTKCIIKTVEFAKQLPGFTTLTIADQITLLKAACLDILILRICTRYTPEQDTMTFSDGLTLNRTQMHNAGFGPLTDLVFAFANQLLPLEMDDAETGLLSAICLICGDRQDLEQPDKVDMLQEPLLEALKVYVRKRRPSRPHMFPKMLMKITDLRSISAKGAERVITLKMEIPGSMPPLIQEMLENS
As to conditions: relative to the amplitude of the normalizing ATRA output.

Data set [7] has as its system COS-7 cells. In words: Cytotoxicity assay (MTT) in COS-7 cells. It is filed as cell-based. As to conditions: 50-fold multiple of EC50. How it is done:
Cytotoxicity Assay: COS-7 cells were plated out on 96 well plates at a density of 8000 cells per well. […] After two days an MTT assay (Promega) was carried out according to the manufacturer’s instructions

Data set [8] addresses T3, 5HT2B site (Homo sapiens, UniProt P41595).
T3 construct: Cerep (CRO)
Description: CEREP selectivity screen, binding assay. As to conditions: read-out: highest inhibition, 5HT2B site. How it is done: The CEREP selectivity screen was performed on the following targets:
A1, A2A, A3, α1, α2, β1, β2, AT1, AT2, BZD central, BZD periph, BB, B2, CGRP, CB1, CCK1, CCK2, D1, D2S, D3, D4.4, D5, ETA, ETB, GABA, GAL1, GAL2, PDGF, CXCR2, CCR1, TNF- α, H1, H2, MC4, MT1, M1, M2, M3, M4, M5, NK1, NK2, NK3,Y1, Y2, NTS1(NT1), δ2, κ, µ, NOP(ORL1) , PAC1(PACAP), PPARγ, PCP, EP2, EP4, IP(PGI2,), P2X, P2Y,5-HT1A, 5-HT1B, 5-HT2A, 5-HT2B, 5-HT2C, 5-HT3, 5-HT5A, 5-HT6, 5-HT7, σ, sst, GR, ER, VPAC1(VIP1), V1a, Ca^2+ channel (L), KV channel, KV channel, SKCa channel, Na^+ channel, Cl^- channel, norepinephrine transporter. dopamine transporter, 5-HT transporter.

Data set [9] in a line: Solubility in water. It counts as physicochemical. As to conditions: as the sodium salt in water at 35 °C.
A short description of data set [10]: Stability and intrinsic clearance in cryopreserved hepatocytes. Conditions: rat.
Description: as §1
Data set [11] concerns the target T4, human RXR α (Homo sapiens, UniProt P19793).
T4 construct: Panlabs Eurofins Pharma Discovery Services (CRO)
T4 sequence (P19793 1-462): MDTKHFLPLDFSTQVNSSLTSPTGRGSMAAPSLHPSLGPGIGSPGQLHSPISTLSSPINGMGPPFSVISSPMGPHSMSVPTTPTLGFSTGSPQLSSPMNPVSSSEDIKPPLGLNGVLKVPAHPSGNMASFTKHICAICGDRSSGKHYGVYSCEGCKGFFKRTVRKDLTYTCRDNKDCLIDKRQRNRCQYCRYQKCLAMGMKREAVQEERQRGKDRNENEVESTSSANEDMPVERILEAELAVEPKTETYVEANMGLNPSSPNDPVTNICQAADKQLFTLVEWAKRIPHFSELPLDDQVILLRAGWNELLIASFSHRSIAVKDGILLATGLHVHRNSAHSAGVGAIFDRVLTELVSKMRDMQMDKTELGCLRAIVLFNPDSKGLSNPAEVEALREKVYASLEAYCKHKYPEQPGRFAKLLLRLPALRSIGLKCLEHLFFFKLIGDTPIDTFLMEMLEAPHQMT
Description: Retinoid X Receptor radioligand binding assay, [3H] 9-cis-retinoic acid. Conditions: human recombinant receptor. How it is done: [22] The Retinoid X Receptor RXRα and RXRβ radioligand binding assays using [^3H] 9-cis-retinoic acid and the respective human recombinant receptors, were carried out by the CRO Panlabs Eurofins Pharma Discovery Services UK Limited, Gemini Crescent, Dundee Technology Park, Dundee, DD2 1SW.

pIC50: −log10 of the molar value. “Also recorded” adds a separate entry of the source.

T1 sequence (Q12809 whole entry): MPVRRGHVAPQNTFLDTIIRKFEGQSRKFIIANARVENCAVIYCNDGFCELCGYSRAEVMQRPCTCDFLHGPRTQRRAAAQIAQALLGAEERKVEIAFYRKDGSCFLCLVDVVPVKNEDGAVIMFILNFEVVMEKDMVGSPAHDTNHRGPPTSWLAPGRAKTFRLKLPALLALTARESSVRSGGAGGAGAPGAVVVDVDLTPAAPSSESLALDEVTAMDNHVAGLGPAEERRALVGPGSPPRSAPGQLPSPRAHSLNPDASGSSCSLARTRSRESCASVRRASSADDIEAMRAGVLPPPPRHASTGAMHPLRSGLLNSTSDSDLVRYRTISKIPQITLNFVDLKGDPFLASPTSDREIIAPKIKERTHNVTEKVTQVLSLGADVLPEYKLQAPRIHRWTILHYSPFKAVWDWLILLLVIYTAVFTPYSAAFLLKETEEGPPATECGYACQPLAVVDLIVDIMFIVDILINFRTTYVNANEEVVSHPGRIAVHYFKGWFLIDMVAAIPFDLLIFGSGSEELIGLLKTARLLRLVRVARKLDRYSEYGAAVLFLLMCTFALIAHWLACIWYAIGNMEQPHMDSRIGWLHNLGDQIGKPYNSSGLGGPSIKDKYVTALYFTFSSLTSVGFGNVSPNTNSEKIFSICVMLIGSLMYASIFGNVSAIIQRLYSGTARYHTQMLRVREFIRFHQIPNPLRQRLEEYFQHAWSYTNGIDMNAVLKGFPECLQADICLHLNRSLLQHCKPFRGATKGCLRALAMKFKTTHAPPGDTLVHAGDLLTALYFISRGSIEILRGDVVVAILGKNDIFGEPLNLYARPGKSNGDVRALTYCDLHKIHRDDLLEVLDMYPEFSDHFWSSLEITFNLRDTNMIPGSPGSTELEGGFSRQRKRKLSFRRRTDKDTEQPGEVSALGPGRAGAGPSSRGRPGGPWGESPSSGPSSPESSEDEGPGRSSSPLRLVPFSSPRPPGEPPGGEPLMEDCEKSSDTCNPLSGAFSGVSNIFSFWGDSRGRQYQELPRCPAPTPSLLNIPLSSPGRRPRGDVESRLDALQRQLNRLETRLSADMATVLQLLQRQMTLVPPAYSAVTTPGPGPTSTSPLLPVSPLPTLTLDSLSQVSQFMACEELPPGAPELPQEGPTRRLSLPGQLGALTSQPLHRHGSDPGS
T3 sequence (P41595 whole entry): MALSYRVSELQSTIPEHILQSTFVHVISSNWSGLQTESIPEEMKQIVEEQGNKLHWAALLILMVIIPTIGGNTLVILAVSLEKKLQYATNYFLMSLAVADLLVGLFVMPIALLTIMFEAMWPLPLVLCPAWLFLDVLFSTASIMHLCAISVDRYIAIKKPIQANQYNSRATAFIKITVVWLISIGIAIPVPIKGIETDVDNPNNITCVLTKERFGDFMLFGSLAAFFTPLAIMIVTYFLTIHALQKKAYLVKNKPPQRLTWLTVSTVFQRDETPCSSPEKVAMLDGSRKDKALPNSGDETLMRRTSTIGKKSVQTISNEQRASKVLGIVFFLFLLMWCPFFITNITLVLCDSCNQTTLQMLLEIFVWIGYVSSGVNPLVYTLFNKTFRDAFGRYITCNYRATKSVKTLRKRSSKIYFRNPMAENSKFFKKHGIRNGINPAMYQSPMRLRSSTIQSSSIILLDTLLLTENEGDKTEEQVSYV

For `CCOc1c(Cl)cc(C(=O)Nc2ccc(C(=O)O)c(C)c2)cc1OC(C)C` [Compound 56, 4-(3-Chloro-4-ethoxy-5-isopropoxybenzamido)-2-methylbenzoic acid], the Ames test result in data set [1] was “negative”. Moreover, the “binding to hERG” value in data set [2] was “did not show any significant binding; also recorded: no inhibition”. Moreover, in data set [3], the “effect on cell or mitochondrial viability markers” value is recorded as “no effect”. In data set [4], this compound returned a half-life at 1 μM above 7.5 h, a half-life at 30 μM above 7.5 h, a hepatocyte CLint at 1 μM below 3 µL/min/1e6 cells and a hepatocyte CLint at 30 μM below 3 µL/min/1e6 cells. In data set [5], this compound registered a half-life at 1 μM above 7.5 h, a half-life at 30 μM above 7.5 h, a hepatocyte CLint at 1 μM below 3 µL/min/1e6 cells and a hepatocyte CLint at 30 μM below 3 µL/min/1e6 cells. In data set [6], the “RARα agonist type (partial / full agonist)” value was “full agonist”. Moreover, in data set [7], the “cytotoxicity in COS-7 cells” value was “no cytotoxicity; also recorded: not cytotoxic”. Besides, in [8], the inhibition at 10 µM is 25%. In addition, in [9], the solubility is above 5000 µg/mL. In data set [10], the half-life at 1 μM worked out at 5.95 h, the half-life at 30 μM was above 7.5 h, the hepatocyte CLint at 1 μM was determined as 4 µL/min/1e6 cells and the hepatocyte CLint at 30 μM is below 3 µL/min/1e6 cells. For the same compound, the pIC50 in data set [11] was below 5.00.
